Measured values reported in patent publication US20240270762A1, “PENICILLIN-BINDING PROTEIN INHIBITORS” (priority 2021, published 2024).
≈ marks a conversion by molar mass, not a printed value.

Legend:
[1] = biological target: T1, PBP3 from Pseudomonas aeruginosa (PAO1) (Pseudomonas aeruginosa, UniProt G3XD46); experiment: Bocillin-FL fluorescence polarization competition binding, P. aeruginosa PBP3; settings: for IC50: Binding affinity to P. aeruginosa PBP3, fluorescence polarization competition binding assay using Bocillin-FL, read-out: P. aeruginosa PBP3 Potency
T1 construct: made in house
Source text: (§1) To determine the ability of boronic acid-based test PBP inhibitors to bind Penicillin Binding Proteins (PBPs), Bocillin-FL (fluorescently-labeled penicillin V; ThermoFisher Scientific) was used in a fluorescence polarization (FP) competition binding assay to assess inhibitor binding to PBP3 from Escherichia coli (K-12), PBP3 from Pseudomonas aeruginosa (PAO1), PBP1a and PBP3 from Acinetobacter baumannii (ATCC 19606), and PBP2 from Neisseria gonorrhoeae (FA19). PBPs were cloned and purified as described previously (E. coli PBP3, King, D. T, et al., ACS Infectious Diseases 2015, 1, 175-184; P. aeruginosa PBP3, Han et. al., PNAS 2010, 107 (51), 22002-22007; A. baumannii PBPs, Penwell et. al., Antimicrob. Agents Chemother. 2015, 59 (3), 1680-1689; N. gonorrhoeae PBP2, Singh et. al., J. Biol. Chem. 2019, 294 (38), 14020-14032). To establish assay conditions for competition binding, enzyme titration/saturation binding experiments were initially performed. Bocillin-FL was prepared at 0.2 μM in a buffer comprised of 50 mM Hepes (pH 8.0), 300 mM NaCl and 10% (v/v) glycerol for reactions with E. coli, P. aeruginosa and N. gonorrhoeae PBPs, and 25 mM Tris (pH 8.0), 200 mM NaCl, 10% (v/v) glycerol and 0.005% (v/v) Tween 20 for reactions with A. baumannii PBPs. Saturation binding was performed by mixing 40 μl of PBP solutions ranging in concentrations from 0-24 μM with 40 μl of the 0.2 μM Bocillin-FL solution, in individual wells of a black 384-well microplate. FP was measured immediately upon mixing (Excitation, 490 nm; Emission, 520 nm; g-factor, 0.96), using a Cytation3 (BioTek) microplate reader and measured continuously for up to 120 minutes. The FP response stabilized after 15 minutes for P. aeruginosa and A. baumannii PBP3, 30 minutes for E. coli PBP3 and A. baumannii PBP1a, and less than 1 minute for N. gonorrhoeae PBP2. […] The competition binding assay (80 μl final volume) was validated using beta-lactams and PBPs at final concentrations of: 1.5 μM for E. coli PBP3; 0.75 μM for P. aeruginosa PBP3; 1 μM for A. baumannii PBP1a; 0.2 μM for A. baumannii PBP3; and 0.25 μM for N. gonorrhoeae PBP2. Bocillin-FL was at 0.1 μM (0.05 μM with A. baumannii PBP1a) and beta-lactam concentrations ranged from 0-1,000 μM. E. coli PBP3 was incubated with increasing concentrations of ampicillin in a black 384-well microplate (Corning) for 30 minutes. P. aeruginosa PBP3 was incubated for 15 minutes with aztreonam, whereas A. baumannii PBP1a and PBP3 were incubated for 15 minutes with meropenem, and then Bocillin-FL was added followed immediately by the FP measurement for up to 60 minutes. […] The beta-lactam potency was reported as the concentration of beta-lactam required to reduce the amount of PBP bound-Bocillin-FL by 50% (EC50). […] The EC50 of aztreonam was determined to be <0.5 μM for P. aeruginosa PBP3. […] Binding assays for boronic acid PBP inhibitors were performed in an identical fashion for the respective PBPs.

[2] = biological target: T2, PBP3 from Acinetobacter baumannii (ATCC 19606) (Acinetobacter baumannii, UniProt A0ABX6CK25); experiment: Bocillin-FL fluorescence polarization competition binding, A. baumannii PBP3; settings: fluorescence polarization competition binding assay using Bocillin-FL; read-out: A. baumannii PBP3 Potency
T2 sequence (A0ABX6CK25 64-610): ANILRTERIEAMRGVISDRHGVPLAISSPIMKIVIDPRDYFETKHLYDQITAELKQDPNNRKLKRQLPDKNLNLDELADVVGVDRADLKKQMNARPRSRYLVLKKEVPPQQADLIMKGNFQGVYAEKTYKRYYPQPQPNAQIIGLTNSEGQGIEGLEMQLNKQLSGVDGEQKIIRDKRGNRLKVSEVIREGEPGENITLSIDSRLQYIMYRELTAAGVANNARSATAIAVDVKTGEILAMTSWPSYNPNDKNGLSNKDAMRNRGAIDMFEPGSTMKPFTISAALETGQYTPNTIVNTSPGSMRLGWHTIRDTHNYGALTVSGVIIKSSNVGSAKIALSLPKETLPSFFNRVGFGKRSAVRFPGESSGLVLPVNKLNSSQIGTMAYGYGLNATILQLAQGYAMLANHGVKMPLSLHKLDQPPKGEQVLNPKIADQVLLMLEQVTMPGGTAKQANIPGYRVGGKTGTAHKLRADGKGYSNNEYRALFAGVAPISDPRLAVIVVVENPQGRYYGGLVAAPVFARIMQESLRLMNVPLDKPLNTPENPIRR
Source text: as §1

P. aeruginosa ATCC 27853 = experiment: microbe, parasite or virus in culture; type: cell-based; settings: Pseudomonas aeruginosa, ATCC27853, read-out: Minimum inhibitory concentration, P. aeruginosa ATCC 27853
A. baumannii ATCC 17978 = experiment: microbe, parasite or virus in culture; type: cell-based; settings: Acinetobacter baumannii, ATCC17978, read-out: MIC, A. baumannii ATCC 17978
A. baumannii ATCC 19606 = experiment: microbe, parasite or virus in culture; type: cell-based; settings: Acinetobacter baumannii, ATCC19606, read-out: MIC, A. baumannii ATCC 19606
P. aeruginosa ATCC 35151 = experiment: microbe, parasite or virus in culture; type: cell-based; settings: Pseudomonas aeruginosa, ATCC35151, read-out: Minimum inhibitory concentration, P. aeruginosa ATCC 35151
[3] = tested on: P. aeruginosa (ΔmexAB-oprM); experiment: Broth microdilution MIC in iron-depleted CAMHB (IDM); type: cell-based; settings: Pseudomonas aeruginosa; iron-depleted CAMHB (IDM); […]; read-out: Minimum inhibitory concentration, P. aeruginosa ΔmexAB-oprM
P. aeruginosa CDC-0054 = experiment: microbe, parasite or virus in culture; type: cell-based; settings: Pseudomonas aeruginosa, CDC0054, read-out: Minimum inhibitory concentration, P. aeruginosa CDC-0054
P. aeruginosa CDC-0090 = experiment: microbe, parasite or virus in culture; type: cell-based; settings: Pseudomonas aeruginosa, CDC0090, read-out: Minimum inhibitory concentration, P. aeruginosa CDC-0090
P. aeruginosa CDC-0095 = experiment: microbe, parasite or virus in culture; type: cell-based; settings: Pseudomonas aeruginosa, CDC0095, read-out: Minimum inhibitory concentration, P. aeruginosa CDC-0095
A. baumannii 1258916 = experiment: microbe, parasite or virus in culture; type: cell-based, Acinetobacter baumannii; settings: Acinetobacter baumannii, 1258916, read-out: MIC, A. baumannii 1258916
A. baumannii CDC-0033 = experiment: microbe, parasite or virus in culture; type: cell-based; settings: Acinetobacter baumannii, CDC0033, read-out: MIC, A. baumannii CDC-0033
A. baumannii CDC-0036 = experiment: microbe, parasite or virus in culture; type: cell-based; settings: Acinetobacter baumannii, CDC0036, read-out: MIC, A. baumannii CDC-0036
A. baumannii CDC-0045 = experiment: microbe, parasite or virus in culture; type: cell-based; settings: Acinetobacter baumannii, CDC0045, read-out: MIC, A. baumannii CDC-0045
[4] = tested on: B. thailandensis ATCC 700388; experiment: microbe, parasite or virus in culture; type: cell-based; settings: Burkholderia thailandensis, ATCC700388, read-out: Minimum inhibitory concentration (MIC), B. thailandensis ATCC 700388
[5] = tested on: B. humptydooensis ATCC BAA-2767; experiment: microbe, parasite or virus in culture; type: cell-based; settings: Burkholderia humptydooensis, ATCCBAA2767, read-out: Minimum inhibitory concentration (MIC), B. humptydooensis ATCC BAA-2767
P. aeruginosa CDC-0110 = experiment: microbe, parasite or virus in culture; type: cell-based; settings: Pseudomonas aeruginosa, CDC0110, read-out: Minimum inhibitory concentration, P. aeruginosa CDC-0110

T1 sequence (G3XD46 whole entry): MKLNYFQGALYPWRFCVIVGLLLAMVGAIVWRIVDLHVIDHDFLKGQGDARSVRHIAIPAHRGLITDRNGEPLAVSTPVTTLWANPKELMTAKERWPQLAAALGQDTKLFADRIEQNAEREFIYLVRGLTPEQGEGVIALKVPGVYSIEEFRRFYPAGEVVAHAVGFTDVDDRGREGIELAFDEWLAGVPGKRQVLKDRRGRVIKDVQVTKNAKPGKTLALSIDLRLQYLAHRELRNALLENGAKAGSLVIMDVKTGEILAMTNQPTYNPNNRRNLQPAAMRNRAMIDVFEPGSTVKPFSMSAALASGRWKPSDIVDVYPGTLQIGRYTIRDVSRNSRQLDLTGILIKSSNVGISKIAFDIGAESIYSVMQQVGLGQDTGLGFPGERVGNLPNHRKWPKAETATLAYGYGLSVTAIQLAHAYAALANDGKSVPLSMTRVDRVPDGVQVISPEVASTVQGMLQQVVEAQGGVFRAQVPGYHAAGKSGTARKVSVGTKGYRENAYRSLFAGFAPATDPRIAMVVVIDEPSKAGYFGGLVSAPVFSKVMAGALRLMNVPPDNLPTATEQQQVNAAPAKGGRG

SMILES | IC50 [1] [µM] | IC50 [2] [µM] | MIC (P. aeruginosa ATCC 27853) [µg/mL] | MIC (A. baumannii ATCC 17978) [µg/mL] | MIC (A. baumannii ATCC 19606) [µg/mL] | MIC (P. aeruginosa ATCC 35151) [µg/mL] | MIC [3] [µg/mL] | MIC (P. aeruginosa CDC-0054) [µg/mL] | MIC (P. aeruginosa CDC-0090) [µg/mL] | MIC (P. aeruginosa CDC-0095) [µg/mL] | MIC (A. baumannii 1258916) [µg/mL] | MIC (A. baumannii CDC-0033) [µg/mL] | MIC (A. baumannii CDC-0036) [µg/mL] | MIC (A. baumannii CDC-0045) [µg/mL] | MIC [4] [µg/mL] | MIC [5] [µg/mL] | MIC (P. aeruginosa CDC-0110) [µg/mL] | EC50 ([1]; beta-lactam validation of FP competition assay, 15 minutes preincubation) [µM]
O=C(O)c1c(F)ccc2c1OB(O)[C@@H](NC(=O)[C@@H](NC(=O)N1CCN(Cc3ccc(O)c(O)c3Cl)C(=O)C1=O)c1cccc(P(=O)(O)O)c1)C2 (single isomer, unassigned) [Example 162] | 10 to 50 | < 10 | 2 to 4 (≈ 2.72 to 5.44 µM) | < 1 | < 1 | < 1 | 2 to 4 (≈ 2.72 to 5.44 µM) | 2 to 4 (≈ 2.72 to 5.44 µM) | 2 to 4 (≈ 2.72 to 5.44 µM) | 8 to 16 (≈ 10.9 to 21.8 µM) | 32 to 64 (≈ 43.6 to 87.1 µM) | > 128 | > 128 | > 128 | 8 to 16 (≈ 10.9 to 21.8 µM) | < 1 | 2 to 4 (≈ 2.72 to 5.44 µM) | 
O=C(O)c1c(F)ccc2c1OB(O)[C@@H](NC(=O)C(NC(=O)N1CCN(C3CCN(C(=O)c4cc[nH]c(=O)c4)CC3)C1=O)c1cc(F)c(O)c(O)c1Cl)C2 (stereo partly drawn) [Example 465, (3R)-3-(2-(2-chloro-5-fluoro-3,4-dihydroxyphenyl)-2-(2-oxo-3-(1-(2-oxo-1,2-dihydropyridine-4-carbonyl)piperidin-4-yl)imidazolidine-1-carboxamido)acetamido)-7-fluoro-2-hydroxy-3,4-dihydro-2H-benzo[e][1,2]oxaborinine-8-carboxylic acid] | < 10 | < 10 |  |  |  |  |  |  |  |  |  |  |  |  |  |  |  | 
O=C(O)c1c(F)ccc2c1OB(O)[C@@H](NC(=O)C(NC(=O)N1CCN(C3CCN(C(=O)c4cncc(O)c4)CC3)C1=O)c1cc(F)c(O)c(O)c1Cl)C2 (stereo partly drawn) [Example 464, (3R)-3-(2-(2-chloro-5-fluoro-3,4-dihydroxyphenyl)-2-(3-(1-(5-hydroxynicotinoyl)piperidin-4-yl)-2-oxoimidazolidine-1-carboxamido)acetamido)-7-fluoro-2-hydroxy-3,4-dihydro-2H-benzo[e][1,2]oxaborinine-8-carboxylic acid] | < 10 | < 10 |  |  |  |  |  |  |  |  |  |  |  |  |  |  |  | 
O=C(O)c1c(F)ccc2c1OB(O)[C@@H](NC(=O)C(NC(=O)N1CCN(C3CCN(C(=O)c4ccc5[nH]nnc5c4)CC3)C1=O)c1cc(F)c(O)c(O)c1Cl)C2 (stereo partly drawn) [Example 469, (3R)-3-(2-(3-(1-(1H-benzo[d][1,2,3]triazole-5-carbonyl)piperidin-4-yl)-2-oxoimidazolidine-1-carboxamido)-2-(2-chloro-5-fluoro-3,4-dihydroxyphenyl)acetamido)-7-fluoro-2-hydroxy-3,4-dihydro-2H-benzo[e][1,2]oxaborinine-8-carboxylic acid] |  | < 10 |  |  |  |  |  |  |  |  |  |  |  |  |  |  |  | 
O=C(O)c1c(F)ccc2c1OB(O)[C@@H](NC(=O)[C@@H](NC(=O)N1CCN(Cc3ccc(O)c(O)c3Cl)C(=O)C1=O)c1ccc(P(=O)(O)O)c(F)c1F)C2 [Example 165, (R)-3-((S)-2-(4-(2-chloro-3,4-dihydroxybenzyl)-2,3-dioxopiperazine-1-carboxamido)-2-(2,3-difluoro-4-phosphonophenyl)acetamido)-7-fluoro-2-hydroxy-3,4-dihydro-2H-benzo[e][1,2]oxaborinine-8-carboxylic acid] | 10 to 50 | < 10 | 2 to 4 (≈ 2.59 to 5.19 µM) | < 1 | < 1 | < 1 | 2 to 4 (≈ 2.59 to 5.19 µM) | < 1 | 2 to 4 (≈ 2.59 to 5.19 µM) | < 1 | 2 to 4 (≈ 2.59 to 5.19 µM) | 32 to 64 (≈ 41.5 to 83 µM) | > 128 | < 1 | < 1 | < 1 | < 1 | 
C[C@H]1[C@H](NC(=O)/C(=N\OC(C)(C)C(=O)O)c2csc(N)n2)C(=O)N1S(=O)(=O)O [aztreonam, reference compound] |  |  |  |  |  |  |  |  |  |  |  |  |  |  |  |  |  | < 0.5
